Measured values published in patent US8410164B2, “Reagent for measurement of active oxygen” (The University of Tokyo, priority 2008, dated 2013).
Values belong to the molecule of their own block, whether it stands above or below them.

Assays:
[1] = Fluorescence quantum yield (Φf); assay type: physicochemical
Method: (§1) The compound 5 (APC) is a substantially non-fluorescent (Φf=0.007) substance having a moiety that specifically reacts with reactive oxygen species in the molecule. This substance specifically reacts with reactive oxygen species, and thereby becomes calcein to emit fluorescence. The tetracetoxymethyl ester of this calcein and diacetyl ester of fluorescein were taken up by HL-60 cells, and intracellular retentivity of calcein and fluorescein was evaluated.

HL-60 cells [2] = experiment: Intracellular retentivity of calcein and fluorescein taken up by HL-60 cells as esters; assay type: cell-based
Method: as §1

[3] = pKa comparison of calcein and fluorescein; assay type: physicochemical
HL-60 cells [4] = experiment: Intracellular retentivity of reaction products of APF and APC-AM in HL-60 cells by FACS; assay type: cell-based; settings: 10 μM loaded 60 minutes, 100 μM hydrogen peroxide 15 minutes
Method: Intracellular retentivities of the reaction products produced from APF and APC with the reactive oxygen species were compared in a similar manner. APF and APC-AM (10 μM, 1.0% dimethylformamide (cosolvent) for the both) were loaded on the HL-60 cells for 60 minutes by adding them to the medium of the cells, and then the cells were stimulated with 100 μM hydrogen peroxide for 15 minutes. Then, fluorescence intensity was periodically measured (0 minute, 30 minutes, 60 minutes) by FACS. In FIG. 6, the graphs (A) to (C) show the results obtained with APF, and the graphs (D) to (F) show the results obtained with APC-AM. The graphs (A) and (D) show the results obtained immediately after the hydrogen peroxide stimulation, (B) and (E) show the results obtained 30 minutes after the stimulation, and (C) and (F) show the results obtained 60 minutes after the stimulation.

HeLa cells = experiment: Imaging of reactive oxygen species in living HeLa cells after sodium hypochlorite stimulation; assay type: cell-based; settings: 1.0 μM loaded for 15 minutes, 500 μM sodium hypochlorite
Method: Imaging of reactive oxygen species in living cells was performed by using the compound 5 (APC). The compound 6 (APC-AM, 1.0 μM, 0.1% dimethylformamide (cosolvent)), which corresponds to APC esterified to increase cell membrane permeability, was loaded on the HeLa cells for 15 minutes by addition to the medium of the cells, and then the cells were stimulated with 500 μM sodium hypochlorite.

Fluorescence quantum yield Φf [1]: 0.793
pKa [3]: ~5.4
SMILES: O=C(O)CN(CC(=O)O)Cc1cc2c(cc1O)Oc1cc(O)c(CN(CC(=O)O)CC(=O)O)cc1C21OC(=O)c2ccccc21 [calcein]
Fluorescence intensity in the HL-60 cells over time (intracellular retentivity) (HL-60 cells [2]; after 60 minutes, loaded as tetracetoxymethyl ester): hardly decreased

SMILES: Nc1ccc(Oc2ccc3c(-c4ccccc4C(=O)O)c4ccc(=O)cc-4oc3c2)cc1 [APF, aminophenylfluorescein]
Fluorescence intensity by FACS immediately after hydrogen peroxide stimulation (HL-60 cells [4]; 0 minute): increase of fluorescence intensity was observed
Fluorescence intensity by FACS 30 and 60 minutes after stimulation (intracellular retentivity of reaction product) (HL-60 cells [4]; 30 and 60 minutes): detection thereof became difficult after 30 minutes

SMILES: O=C1OC2(c3ccc(O)cc3Oc3cc(O)ccc32)c2ccccc21 [fluorescein]
Fluorescence intensity in the HL-60 cells over time (intracellular retentivity), level remaining (HL-60 cells [2]; after 15 minutes, loaded as diacetyl ester, fraction of the starting intensity): 1/10
pKa [3]: 6.4

SMILES: CC(=O)OCOC(=O)CN(CC(=O)OCOC(C)=O)Cc1c(O)ccc2c1Oc1c(ccc(Oc3ccc([N+](=O)[O-])cc3)c1CN(CC(=O)OCOC(C)=O)CC(=O)OCOC(C)=O)C21OC(=O)c2ccccc21 (centres unmarked) [APC-AM, 3-Hydroxy-4,5-bis[N,N′-di(carboxymethyl)aminomethyl]-6-(4′-nitro)phenoxyfluorescein tetracetoxymethyl ester]
Fluorescence in HeLa cells after sodium hypochlorite stimulation (HeLa cells): Extremely intense fluorescence
